# Where two headings read alike, the source gives them in different places.
# What was measured:
# [1] = molecular target: rat liver alcohol dehydrogenase (Rattus norvegicus, UniProt P06757); assay: Oxidation of alcohols by isolated rat liver alcohol dehydrogenase
# [2] = molecular target: horse liver ADH1E (Equus caballus, UniProt P00327); assay: Reactions of horse liver ADH1E with 1,5-pentanediol and 5-hydroxypentanal; format: biochemical; conditions: for concentration formed in dismutation reaction: 5 mM 5-hydroxypentanal, 1 mM NAD+, 0.01 mg/mL ADH, at 12 h, GC
# [3] = tested on: methanol metabolism; conditions: cited from earlier work
# [4] = tested on: ethanol elimination; conditions: cited from earlier work
# [5] = tested on: cytochrome P-450; conditions: read-out: in vitro Ki; cited from earlier work
# [6] = molecular target: rat liver ADH; conditions: read-out: in vitro Ki (competitive against alcohol); cited from earlier work
# [7] = cited from earlier work
# [8] = tested on: microsomal ethanol oxidizing system (NADPH-dependent cytochrome P-450 enzymes); conditions: cited from earlier work
# [9] = molecular target: ADH3 (UniProt P12711); conditions: cited from earlier work
# [10] = humans; cited from earlier work
# [11] = tested on: rat liver ADH1; conditions: cited from earlier work
# [12] = data for zero order elimination, rats without inhibitors
# [13] = calculated from kinetic constants with Michaelis-Menten equation for 5 mM alcohol
# [14] = from inhibition by 1 mmole/kg 4-methylpyrazole
# [15] = observed rate without inhibitors minus the rate with 1 mmole/kg 4-methylpyrazole
# [16] = primary alcohols and diols, doses of 5–20 mmole/kg
# [17] = 83 mM potassium phosphate, 40 mM KCl, pH 7.3, 37 °C, 0.5 mM NAD+
# [18] = rats fasted 24 h, dose mmole/kg: 2-propanol 17, 2-propanol-d7 15
# [19] = secondary alcohols, doses of 5–10 mmole/kg
# [20] = uninhibited rate at higher 4-methylpyrazole and isobutyramide
# Chain of horse liver ADH1E (P00327 2-375 limits assumed): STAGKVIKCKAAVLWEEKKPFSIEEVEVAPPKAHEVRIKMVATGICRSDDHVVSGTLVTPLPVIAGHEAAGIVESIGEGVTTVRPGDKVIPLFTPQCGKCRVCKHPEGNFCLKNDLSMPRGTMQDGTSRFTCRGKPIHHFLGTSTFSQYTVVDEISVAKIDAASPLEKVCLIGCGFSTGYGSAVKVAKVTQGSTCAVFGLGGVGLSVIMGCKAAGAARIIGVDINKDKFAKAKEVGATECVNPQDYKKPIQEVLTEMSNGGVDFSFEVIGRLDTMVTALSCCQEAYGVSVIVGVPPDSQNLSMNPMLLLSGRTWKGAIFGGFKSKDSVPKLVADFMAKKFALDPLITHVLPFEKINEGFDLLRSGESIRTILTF
# Chain of rat liver alcohol dehydrogenase (P06757 2-376 limits assumed): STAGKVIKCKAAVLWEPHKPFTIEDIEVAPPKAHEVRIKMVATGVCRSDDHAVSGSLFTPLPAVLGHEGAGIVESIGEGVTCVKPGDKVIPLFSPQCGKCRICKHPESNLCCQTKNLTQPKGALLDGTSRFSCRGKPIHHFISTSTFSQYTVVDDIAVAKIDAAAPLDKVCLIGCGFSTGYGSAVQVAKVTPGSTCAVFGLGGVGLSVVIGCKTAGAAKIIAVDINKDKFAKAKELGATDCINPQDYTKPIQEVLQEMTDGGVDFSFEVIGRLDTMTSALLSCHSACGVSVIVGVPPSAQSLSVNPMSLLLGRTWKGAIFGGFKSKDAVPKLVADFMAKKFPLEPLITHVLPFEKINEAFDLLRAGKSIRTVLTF
compound,measurement,setting,value
"OCCO [1,2-Ethanediol, 1,2-ethanediol]",r (fraction of body weight accessible to the alcohol),"rat, in vivo, ip",0.72 ± 0.08 mL/g
same,V rel (Vmax relative to ethanol as substrate),[1]; pH 7.3,0.99 ± 0.25
same,Vrel/K,[1]; pH 7.3,0.0013
"CC(O)CCO (stereo not drawn) [1,3-Butanediol, 1,3-butanediol]",in vivo rate of elimination,[12],5.0 ± 0.3 mmol/kg/h
same,Rate due to ADH,"male, rat, in vivo",4.1
same,r (fraction of body weight accessible to the alcohol),"male, rat, in vivo, ip",0.82 ± 0.05 mL/g
same,%ADH (estimated percentage of elimination due to ADH),"rat, in vivo",82%
same,in vitro v rel,[1]; [13],0.44
"OCCCO [1,3-Propanediol, 1,3-propanediol]",in vivo rate of elimination,[12],2.7 ± 0.8 mmol/kg/h
same,%ADH (estimated percentage of elimination due to ADH),[14],63%
same,Rate due to ADH,[15],1.7
same,kinetics of elimination in rats (order),[16],zero-order kinetics
same,Km,[1]; [17],24 ± 2 mM
same,V rel (Vmax relative to ethanol as substrate),[1]; [17],0.75 ± 0.04
same,in vitro v rel,[1]; [13],0.13
same,Vrel/K,"[1]; pH 7.3, 37 °C, 0.5 mM NAD+",0.031
"OCCCCO [1,4-Butanediol, 1,4-butanediol]",Rate due to ADH,"male, rat, in vivo",5.8
same,in vivo rate of elimination,"male, rat, in vivo",6.7 ± 0.1 mmol/kg/h
same,r (fraction of body weight accessible to the alcohol),"male, rat, in vivo, ip",1.3 ± 0.2 mL/g
same,%ADH (estimated percentage of elimination due to ADH),"rat, in vivo",86%
same,kinetics of elimination in rats (order),"rat, in vivo",zero-order kinetics
same,in vitro v rel,[1],0.52
same,V rel (Vmax relative to ethanol as substrate),[1]; pH 7.3,1.5 ± 0.3
same,Vrel/K,[1]; pH 7.3,0.16
"OCCCCCO [1,5-Pentanediol, 1,5-pentanediol]",kinetics of elimination in rats (order),[16],zero-order kinetics
same,Vmax relative to the activity on ethanol,[2],1.1
same,concentration formed in dismutation reaction,[2],~ 2 mM
same,V rel (Vmax relative to ethanol as substrate),[1]; [17],3.6 ± 1.3
same,Vrel/K,"[1]; pH 7.3, 37 °C, 0.5 mM NAD+",1.0
"CCCCO [1-Butanol, 1-butanol]",%ADH (estimated percentage of elimination due to ADH),[14],56%
same,in vivo rate of elimination,"rat, in vivo",3.2 ± 0.4 mmol/kg/h
same,Km,[1]; [17],0.14 ± 0.03 mM
same,V rel (Vmax relative to ethanol as substrate),[1]; [17],1.3 ± 0.1
same,in vitro v rel,[1]; [13],1.3
same,Vrel/K,"[1]; pH 7.3, 37 °C, 0.5 mM NAD+",9.3
"CCCO [1-Propanol, 1-propanol]",%ADH (estimated percentage of elimination due to ADH),[14],81%
same,Rate due to ADH,"rat, in vivo",4.3
same,in vivo rate of elimination,"rat, in vivo",5.3 ± 0.5 mmol/kg/h
same,kinetics of elimination in rats (order),"rat, in vivo",zero-order kinetics
same,r (fraction of body weight accessible to the alcohol),"rat, in vivo, ip",0.67 ± 0.09 mL/g
same,Km,[1]; [17],0.22 ± 0.03 mM
same,V rel (Vmax relative to ethanol as substrate),[1]; [17],0.95 ± 0.07
same,in vitro v rel,[1]; [13],0.91
same,Vrel/K,"[1]; pH 7.3, 37 °C, 0.5 mM NAD+",4.3
"CCC(C)O (stereo not drawn) [2-Butanol, 2-butanol]",%ADH (estimated percentage of elimination due to ADH),[14],68%
same,Rate due to ADH,"rat, in vivo",1.7
same,in vivo rate of elimination,"rat, in vivo",2.5 ± 0.4 mmol/kg/h
same,kinetics of elimination in rats (order),"rat, in vivo",first order kinetics
same,"10^4 k1 (first order, alcohol to ketone)","rat, in vivo, ip",112 ± 17 min^−1
same,"10^4 k2 (first order, elimination of ketone)","rat, in vivo, ip",37 ± 4 min^−1
same,"k2 (zero order, elimination of ketone)","rat, in vivo, ip",1.1 ± 0.2 mmol/kg/h
same,r,"rat, in vivo, ip",0.74 ± 0.08 mL/g
same,Km,[1]; [17],12 ± 6 mM
same,V rel (Vmax relative to ethanol as substrate),[1]; [17],0.48 ± 0.03
same,in vitro v rel,[1]; [13],0.14
same,Vrel/K,"[1]; pH 7.3, 37 °C, 0.5 mM NAD+",0.04
CCC(C)=O [2-Butanone],"10^4 k2 (first order, elimination of ketone)","rat, in vivo, ip",31 ± 2 min^−1
same,"k2 (zero order, elimination of ketone)","rat, in vivo, ip",1.3 mmol/kg/h
same,r,"rat, in vivo, ip",0.81 mL/g
"CC(C)CO [2-Methyl-1-propanol, 2-methyl-1-propanol]",%ADH (estimated percentage of elimination due to ADH),[14],66%
same,in vivo rate of elimination,"rat, in vivo",3.8 ± 0.5 mmol/kg/h
same,Km,[1]; [17],0.19 ± 0.04 mM
same,V rel (Vmax relative to ethanol as substrate),[1]; [17],0.80 ± 0.04
same,in vitro v rel,[1]; [13],0.77
same,Vrel/K,"[1]; pH 7.3, 37 °C, 0.5 mM NAD+",4.2
"CC(C)O [2-Propanol, 2-propanol]",inhibition of the rate of elimination,by 1 mmole/kg of 4-methylpyrazole,55%
same,"k2 (zero order, elimination of ketone)","fed rats, 10 mmole/kg isobutyramide (IBA), dose 10 mmole/kg",0.44 mmol/kg/h
same,%ADH (estimated percentage of elimination due to ADH),[14],55%
same,"10^4 k1 (first order, alcohol to ketone)","rat, in vivo",42 ± 4 min^−1
same,"10^4 k2 (first order, elimination of ketone)","rat, in vivo",14.3 ± 0.6 min^−1
same,Km,"rat, in vivo",58 ± 20 mM
same,"Vmax, Michaelis-Menten fit of elimination in vivo","rat, in vivo",0.38 ± 0.10 mM/min
same,r,"rat, in vivo",0.75 ± 0.01 mL/g
same,"k2 (zero order, elimination of ketone)",[18],0.64 ± 0.02 mmol/kg/h
same,V rel (Vmax relative to ethanol as substrate),[1]; [17],0.40 ± 0.02
same,Km,"[1]; 83 mM potassium phosphate, 40 mM KCl, pH 7.3, 37 °C, 0.5 mM NAD+, listed as 2-propanol",36 ± 7 mM
same,in vitro v rel,[1]; [13],0.049
same,Vrel/K,"[1]; pH 7.3, 37 °C, 0.5 mM NAD+",0.011
"CC(C)O [2-Propanol-d7, 2-propanol-d7]",Km,"[1]; 83 mM potassium phosphate, 40 mM KCl, pH 7.3, 37 °C, 0.5 mM NAD+, listed as 2-propanol-d7",83 ± 15 mM
"[2H]C([2H])([2H])C([2H])(O)C([2H])([2H])[2H] [2-Propanol-d7, 2-propanol-d7]","10^4 k1 (first order, alcohol to ketone)","rat, in vivo",18 ± 2 min^−1
same,"10^4 k2 (first order, elimination of ketone)","rat, in vivo",13 ± 2 min^−1
same,"k2 (zero order, elimination of ketone)","rat, in vivo",0.44 ± 0.06 mmol/kg/h
same,"10^4 k1 (first order, alcohol to ketone)","rat, in vivo, ip",25 ± 2 min^−1
same,"10^4 k2 (first order, elimination of ketone)","rat, in vivo, ip",19 ± 4 min^−1
same,"k2 (zero order, elimination of ketone)","rat, in vivo, ip",0.59 ± 0.08 mmol/kg/h
same,r,[18],0.70 ± 0.03 mL/g
same,kinetics of elimination in rats (order),[19],first order kinetics
same,V rel (Vmax relative to ethanol as substrate),[1]; [17],0.20 ± 0.02
same,in vitro v rel,[1]; [13],0.011
same,Vrel/K,"[1]; pH 7.3, 37 °C, 0.5 mM NAD+",0.0024
"Nc1nc[nH]n1 [3-Aminotriazole, 3-Amino-1,2,4-triazole]",inhibition of methanol metabolism,[3],~ 35%
same,inhibition of ethanol metabolism in rats,[4],~ 10%
"CC(C)CCO [3-Methyl-1-butanol, 3-methyl-1-butanol]",%ADH (estimated percentage of elimination due to ADH),[14],61%
same,in vivo rate of elimination,"male, Sprague-Dawley, rat, in vivo",4.6 ± 0.8 mmol/kg/h
same,V rel (Vmax relative to ethanol as substrate),[1]; [17],0.54 ± 0.02
same,in vitro v rel,[1]; [13],0.53
same,Vrel/K,[1]; pH 7.3,13
"CCC(O)CC [3-Pentanol, 3-pentanol]",%ADH (estimated percentage of elimination due to ADH),[14],90%
same,Rate due to ADH,[15],3.6
same,kinetics of elimination in rats (order),[19],first order kinetics
same,V rel (Vmax relative to ethanol as substrate),[1]; [17],0.69 ± 0.03
same,in vitro v rel,[1]; [13],0.35
same,Vrel/K,"[1]; pH 7.3, 37 °C, 0.5 mM NAD+",0.14
Cc1cn[nH]c1 [4-methylpyrazole],Ki,[5],5.7 mM
same,Ki,[6],0.00011 mM
same,"effective, in vivo, competitive Ki",[4]; in the rat,1.4 µmol/kg
same,inhibition of elimination of ethanol,"[4]; inhibitor dose 1 mmole/kg, ethanol 20 mmole/kg",87%
"OCc1ccccc1 [Benzyl alcohol, benzyl alcohol]",Ki,[1],27 mM
same,V rel (Vmax relative to ethanol as substrate),[1]; [17],0.47 ± 0.03
same,Vrel/K,"[1]; pH 7.3, 37 °C, 0.5 mM NAD+",13
"OC1CCCCC1 [Cyclohexanol, cyclohexanol]",%ADH (estimated percentage of elimination due to ADH),[14],74%
same,Rate due to ADH,"male, rat, in vivo",3.2
same,in vivo rate of elimination,"male, rat, in vivo",4.3 ± 1.5 mmol/kg/h
same,"10^4 k1 (first order, alcohol to ketone)","male, rat, in vivo, ip",229 ± 70 min^−1
same,"10^4 k2 (first order, elimination of ketone)","male, rat, in vivo, ip",50 ± 6 min^−1
same,r,"male, rat, in vivo, ip",0.75 ± 0.21 mL/g
same,in vitro v rel,[1]; [13],0.90
O=C1CCCCC1 [Cyclohexanone],"10^4 k1 (first order, alcohol to ketone)","male, rat, in vivo, ip",176 ± 13 min^−1
same,"10^4 k2 (first order, elimination of ketone)","male, rat, in vivo, ip",67 ± 3 min^−1
same,r,"male, rat, in vivo, ip",0.53 mL/g
"OC1CCCC1 [Cyclopentanol, cyclopentanol]",%ADH (estimated percentage of elimination due to ADH),[14],64%
same,Rate due to ADH,[15],3.0
same,kinetics of elimination in rats (order),[19],first order kinetics
same,V rel (Vmax relative to ethanol as substrate),[1]; [17],0.72 ± 0.04
same,in vitro v rel,[1]; [13],0.68
same,Vrel/K,"[1]; pH 7.3, 37 °C, 0.5 mM NAD+",2.2
"CCO [Ethanol, ethanol]",rate of elimination,[7]; fed rats,about 8 mmol/kg•h
same,Km of inhibitor-insensitive elimination,[7]; [20],21 mmol/kg
same,Vmax of inhibitor-insensitive elimination,[7]; [20],2.1 mmol/kg/h
same,Km,[8],9.6 mM
same,possible contribution to the rate of ethanol metabolism,[8],20–25%
same,activity of ADH3,[9],no detectable activity
same,%ADH (estimated percentage of elimination due to ADH),[14],89%
same,in vivo rate of elimination,"rat, in vivo",7.9 ± 1.0 mmol/kg/h
same,rate of elimination,[10],about 2.2 mmol/kg•h
same,Km,[1]; [17],0.64 ± 0.22 mM
same,V rel (Vmax relative to ethanol as substrate),[1]; [17],(1.0)
same,in vitro v rel,[1]; [13],0.88
same,Vrel/K,"[1]; pH 7.3, 37 °C, 0.5 mM NAD+",1.6
CO [Methanol],Km,[8],22 mM
same,Vmax relative to ethanol,[11],0.10
same,Rate (zero-order elimination),"fed rat, MP+AT, methanol 10 mmole/kg i.p.",0.41 mmol/kg/h
same,time required to eliminate the dose,"rat, in vivo",15 h
same,Rate (zero-order elimination),"rat, in vivo, ip",0.56 ± 0.01 mmol/kg/h
CC(C)C(N)=O [isobutyramide],in vivo Ki (uncompetitive),[4],1 mmol/kg
"c1cn[nH]c1 [pyrazole, reference compound]",Inhibition of the ADH reactions,[1]; 10 mM pyrazole,almost totally inhibited
O=C1CCCCO1 [δ-valerolactone],concentration formed in dismutation reaction,[2],~ 2 mM

# Reference: publication PMC4414724 (Chemico-biological interactions, 2015)
